Test: Stability investigation of crystal forms A, B, C, D and the amorphous form of the compound of formula (1) (related substances by HPLC, moisture, XRD, DSC)
Assay type: physicochemical
Settings: for Stability, testing conclusion: under the above conditions (all placement conditions of the study)
Protocol: 2.1 Investigation conditions for the crystal form A of the compound of formula (1): • placed at 105° C. for 5 days, opened, and sampled for testing on day 5; • placed at 60° C. for 10 days, opened/closed, and sampled for testing on day 10; • placed at 25° C. and RH 92.5% for 10 days, opened/closed, and sampled for testing on day 10; • placed at 40° C. and RH 75% for one month, opened/closed, and sampled for testing on the last day of the month; and • under illumination, employing a closed way (polyethylene bag + composite film bag) to meet illumination requirements, and sampled for testing.
Illumination requirements: ICH Q1B Stability Testing: Photostability Testing of New Drug Substances and Products.
Determination of related substances: determined according to 0512 HPLC in General Principle (Volume IV) of Chinese Pharmacopoeia (2015 Version).
Moisture determination: determined according to 2 Coulometric Titration in the First Method (Karl Fischer titration) of 0832 Moisture Determination Method in General Principle (Volume IV) of Chinese Pharmacopoeia (2015 Version).
XRD determination: determined according to the Second Method-Powder X-ray Diffraction Method of 0451 X-ray Diffraction Method in General Principle (Volume IV) of Chinese Pharmacopoeia (2015 Version).
DSC determination: precisely weighing an appropriate amount of sample in a Standard disc, covering the Standard disc, placing the Standard disc in a sample disc position in a DSC furnace, placing a blank disc of the same type in a reference position, and carrying out the following temperature rise program:
1. Equilibrate at 25° C.; and
2.1 Investigation conditions for the crystal form B of the compound of formula (1): • placed at 105° C. for 5 days, opened, and sampled for testing on day 5; • placed at 60° C. for 10 days, opened/closed, and sampled for testing on day 10; • placed at 25° C. and RH 92.5% for 10 days, opened/closed, and sampled for testing on day 10; • placed at 40° C. and RH 75% for one month, opened/closed, and sampled for testing on the last day of the month; and • under illumination, employing a closed way (polyethylene bag + composite film bag) to meet illumination requirements, and sampled for testing.
2.1 Investigation conditions for the crystal form C of the compound of formula (1): • placed at 105° C. for 5 days, opened, and sampled for testing on day 5; • placed at 60° C. for 10 days, opened/closed, and sampled for testing on day 10; • placed at 25° C. and RH 92.5% for 10 days, opened/closed, and sampled for testing on day 10; • placed at 40° C. and RH 75% for one month, opened/closed, and sampled for testing on the last day of the month; and • under illumination, employing a closed way (polyethylene bag + composite film bag) to meet illumination requirements, and sampled for testing.
1. Equilibrate at 25° C.; and 2. Ramp 10° C. to 200° C.
2.1 Investigation conditions for the crystal form D of the compound of formula (1): • placed at 105° C. for 5 days, opened, and sampled for testing on day 5; • placed at 60° C. for 10 days, opened/closed, and sampled for testing on day 10; • placed at 25° C. and RH 92.5% for 10 days, opened/closed, and sampled for testing on day 10; • placed at 40° C. and RH 75% for one month, opened/closed, and sampled for testing on the last day of the month; and • under illumination, employing a closed way (polyethylene bag + composite film bag) to meet illumination requirements, and sampled for testing.
2.1 Investigation conditions for the amorphous form of the compound of formula (1): • placed at 60° C. for 10 days, opened/closed, and sampled for testing on day 10; • placed at 25° C. and RH 92.5% for 10 days, opened/closed, and sampled for testing on day 10; • placed at 40° C. and RH 75% for one month, opened/closed, and sampled for testing on the last day of the month; and • under illumination, employing a closed way (polyethylene bag + composite film bag) to meet illumination requirements, and sampled for testing.

[1] = 25° C., RH 92.5%, closed, 10 days
[2] = 25° C., RH 92.5%, opened, 10 days

C[C@H]1CCN1c1nc(N2C[C@@H]3[C@@H](CC(=O)O)[C@@H]3C2)c2c(n1)C(F)(F)CC2 [Amorphous form, 2-((1R,5S,6R)-3-(7,7-difluoro-2-((S)-2-methylazetidin-1-yl)-6,7-dihydro-5H-cyclopenta[d]pyrimidin-4-yl)-3-azabicyclo[3.1.0]hexan-6-yl)acetic acid]
Moisture % (0 day): 0.70%
Total related % (0 day): 0.21%
Trait (0 day): Off-white power
Moisture % [1]: 2.8%
Total related % [1]: 0.35%
Trait [1]: Off-white power
Moisture % [2]: 3.1%
Total related % [2]: 0.38%
Trait [2]: Off-white power
Moisture % (40° C., RH 75%, closed, 1 M): 2.1%
Total related % (40° C., RH 75%, closed, 1 M): 2.98%
Trait (40° C., RH 75%, closed, 1 M): Off-white power
Moisture % (40° C., RH 75%, opened, 1 M): 1.9%
Total related % (40° C., RH 75%, opened, 1 M): 2.86%
Trait (40° C., RH 75%, opened, 1 M): Off-white power
Moisture % (60° C., closed, 10 days): 0.73%
Total related % (60° C., closed, 10 days): 3.92%
Trait (60° C., closed, 10 days): Off-white power
Moisture % (60° C., opened, 10 days): 0.56%
Total related % (60° C., opened, 10 days): 4.30%
Trait (60° C., opened, 10 days): Off-white power
Moisture % (Avoid light for 18 days): 1.26%
Total related % (Avoid light for 18 days): 0.42%
Trait (Avoid light for 18 days): Off-white power
Stability, testing conclusion: less stable than that of the crystal form A, the crystal form B, the crystal form C and the crystal form D

C[C@H]1CCN1c1nc(N2C[C@@H]3[C@@H](CC(=O)O)[C@@H]3C2)c2c(n1)C(F)(F)CC2 [Crystal form A, 2-((1R,5S,6R)-3-(7,7-difluoro-2-((S)-2-methylazetidin-1-yl)-6,7-dihydro-5H-cyclopenta[d]pyrimidin-4-yl)-3-azabicyclo[3.1.0]hexan-6-yl)acetic acid]
DSC (0 day): 170.33 °C
Moisture % (0 day): 0.53%
Total related % (0 day): 0.18%
Trait (0 day): Off-white power
DSC [1]: 170.42 °C
Moisture % [1]: 0.54%
Total related % [1]: 0.24%
Trait [1]: Off-white power
XRD [1]: Same as day 0
DSC [2]: 170.23 °C
Moisture % [2]: 0.54%
Total related % [2]: 0.24%
Trait [2]: Off-white power
XRD [2]: Same as day 0
DSC (40° C., RH 75%, closed, 1 M): 170.38 °C
Moisture % (40° C., RH 75%, closed, 1 M): 0.57%
Total related % (40° C., RH 75%, closed, 1 M): 0.22%
Trait (40° C., RH 75%, closed, 1 M): Off-white power
XRD (40° C., RH 75%, closed, 1 M): Same as day 0
DSC (40° C., RH 75%, opened, 1 M): 170.32 °C
Moisture % (40° C., RH 75%, opened, 1 M): 0.46%
Total related % (40° C., RH 75%, opened, 1 M): 0.24%
Trait (40° C., RH 75%, opened, 1 M): Off-white power
XRD (40° C., RH 75%, opened, 1 M): Same as day 0
DSC (60° C., closed, 10 days): 170.34 °C
Moisture % (60° C., closed, 10 days): 0.61%
Total related % (60° C., closed, 10 days): 0.24%
Trait (60° C., closed, 10 days): Off-white power
XRD (60° C., closed, 10 days): Same as day 0
DSC (60° C., opened, 10 days): 170.26 °C
Moisture % (60° C., opened, 10 days): 0.54%
Total related % (60° C., opened, 10 days): 0.25%
Trait (60° C., opened, 10 days): Off-white power
XRD (60° C., opened, 10 days): Same as day 0
DSC (105° C., opened, 5 days): 170.65 °C
Moisture % (105° C., opened, 5 days): 0.54%
Total related % (105° C., opened, 5 days): 0.30%
Trait (105° C., opened, 5 days): Off-white power
XRD (105° C., opened, 5 days): Same as day 0
DSC (Avoid light for 18 days): 170.20 °C
Moisture % (Avoid light for 18 days): 0.47%
Total related % (Avoid light for 18 days): 0.19%
Trait (Avoid light for 18 days): Off-white power
XRD (Avoid light for 18 days): Same as day 0
Stability, testing conclusion: relatively stable

C[C@H]1CCN1c1nc(N2C[C@@H]3[C@@H](CC(=O)O)[C@@H]3C2)c2c(n1)C(F)(F)CC2 [Crystal form B, 2-((1R,5S,6R)-3-(7,7-difluoro-2-((S)-2-methylazetidin-1-yl)-6,7-dihydro-5H-cyclopenta[d]pyrimidin-4-yl)-3-azabicyclo[3.1.0]hexan-6-yl)acetic acid]
DSC (0 day): 169.28 °C
Moisture % (0 day): 0.17%
Total related % (0 day): 0.08%
Trait (0 day): White powder
DSC [1]: 169.47 °C
Moisture % [1]: 0.35%
Total related % [1]: 0.10%
Trait [1]: White powder
XRD [1]: Same as day 0
DSC [2]: 169.31 °C
Moisture % [2]: 0.26%
Total related % [2]: 0.10%
Trait [2]: White powder
XRD [2]: Same as day 0
DSC (40° C., RH 75%, closed, 1 M): 169.57 °C
Moisture % (40° C., RH 75%, closed, 1 M): 0.39%
Total related % (40° C., RH 75%, closed, 1 M): 0.08%
Trait (40° C., RH 75%, closed, 1 M): White powder
XRD (40° C., RH 75%, closed, 1 M): Same as day 0
DSC (40° C., RH 75%, opened, 1 M): 169.43 °C
Moisture % (40° C., RH 75%, opened, 1 M): 0.35%
Total related % (40° C., RH 75%, opened, 1 M): 0.09%
Trait (40° C., RH 75%, opened, 1 M): White powder
XRD (40° C., RH 75%, opened, 1 M): Same as day 0
DSC (60° C., closed, 10 days): 169.35 °C
Moisture % (60° C., closed, 10 days): 0.21%
Total related % (60° C., closed, 10 days): 0.11%
Trait (60° C., closed, 10 days): White powder
XRD (60° C., closed, 10 days): Same as day 0
DSC (60° C., opened, 10 days): 169.27 °C
Moisture % (60° C., opened, 10 days): 0.26%
Total related % (60° C., opened, 10 days): 0.13%
Trait (60° C., opened, 10 days): White powder
XRD (60° C., opened, 10 days): Same as day 0
DSC (105° C., opened, 5 days): 169.53 °C ° C.
Moisture % (105° C., opened, 5 days): 0.28%
Total related % (105° C., opened, 5 days): 0.22%
Trait (105° C., opened, 5 days): White powder
XRD (105° C., opened, 5 days): Same as day 0
DSC (Avoid light for 18 days): 169.15 °C
Moisture % (Avoid light for 18 days): 0.17%
Total related % (Avoid light for 18 days): 0.07%
Trait (Avoid light for 18 days): White powder
XRD (Avoid light for 18 days): Same as day 0
Stability, testing conclusion: relatively stable
